The subject of this test is NL-RLuc virus (recombinant NL4-3 HIV with Renilla Luciferase gene). The test can be described thus: Inhibition of HIV replication (NL-RLuc virus in MT-2 cells, luciferase readout). It is filed as cell-based, Human immunodeficiency virus (HIV). The settings on record: MT2, 120 h. An excerpt: Inhibition of HIV Replication:
A recombinant NL-RLuc proviral clone was constructed in which a section of the nef gene form NL4-3 was replaced with the Renilla Luciferase gene. This virus is fully infectious and can undergo multiple cycles of replication in cell culture. In addition, the luciferous reporter provides a simple and easy method for quantitating the extent of virus growth and consequently, the antiviral activity of test compounds. The plasmid pNLRLuc contains the proviral NL-Rluc DNA cloned into pUC18 at the PvuII site. The NL-RLuc virus was prepared by transfection of 293T cells with the plasmid pNLRLuc. Transfections were performed using the LipofectAMINE PLUS kit form Invitrogen (Carlsbad, Calif.) according to the manufacturer and the virus generated was titered in MT-2 cells. For susceptibility analyses, the titrated virus was used to infect MT-2 cells in the presence of compound, and after 5 days of incubation, cells were processed and quantitated for virus growth by the amount of expressed luciferase. Assay media was RPMI 1640 supplemented with 10% heat inactivated fetal bovine serum (FBS), 100 units/ml penicillin G/100 units/ml streptomycin, 10 mM HEPES buffer pH 7.55 and 2 mM L-glutamine. The results form at least 2 experiments were used to calculate the EC50 values. Luciferase was quantitated using the Dual Luciferase kit form Promega (Madison, Wis.). Susceptibility of viruses to compounds was determined by incubation in the presence of serial dilutions of the compound. The 50% effective concentration (EC50) was calculated by using the exponential form of the median effect equation where (Fa)=1/[1+(ED50/drug conc.)^m](Johnson V A, Byington R T. Infectivity Assay. In Techniques in HIV Research. ed. Aldovini A, Walker B D. 71-76. New York: Stockton Press. 1990).
As to `Cc1nc(C)c([C@H](OC(C)(C)C)C(=O)O)c(N2CCC(C)(C)CC2)c1-c1ccc2c(c1)CCN(c1cc(N3CCOCC3)ccn1)C2` [Example 83, (S)-2-(tert-Butoxy)-2-(4-(4,4-dimethylpiperidin-1-yl)-2,6-dimethyl-5-(2-(4-morpholinopyridin-2-yl)-1,2,3,4-tetrahydroisoquinolin-6-yl)pyridin-3-yl)acetic Acid], the EC50 worked out at 5 nM.
To `Cc1cccc(Cl)c1CN1CCc2cc(-c3c(NCCCN4CCCCC4)nc(C)c([C@H](OC(C)(C)C)C(=O)O)c3N3CCC(C)(C)CC3)ccc2C1` [Example 10, (S)-2-(tert-Butoxy)-2-(5-(2-(2-chloro-6-methylbenzyl)-1,2,3,4-tetrahydroisoquinolin-6-yl)-4-(4,4-dimethylpiperidin-1-yl)-2-methyl-6-((3-(piperidin-1-yl)propyl)amino)pyridin-3-yl)acetic Acid] belongs 2 nM; to `COc1ncccc1-c1cc(C)nc(N2CCc3cc(-c4c(C)nc(C)c([C@H](OC(C)(C)C)C(=O)O)c4N4CCC(C)(C)CC4)ccc3C2)n1` [Example 106, (S)-2-(tert-Butoxy)-2-(4-(4,4-dimethylpiperidin-1-yl)-5-(2-(4-(2-methoxypyridin-3-yl)-6-methylpyrimidin-2-yl)-1,2,3,4-tetrahydroisoquinolin-6-yl)-2,6-dimethylpyridin-3-yl)acetic Acid], 8 nM; to `CCOc1cc(N2CCc3cc(-c4c(C)nc(C)c([C@H](OC(C)(C)C)C(=O)O)c4N4CCC(C)(C)CC4)ccc3C2)ncn1` [Example 126, (S)-2-(tert-Butoxy)-2-(4-(4,4-dimethylpiperidin-1-yl)-5-(2-(6-ethoxypyrimidin-4-yl)-1,2,3,4-tetrahydroisoquinolin-6-yl)-2,6-dimethylpyridin-3-yl)acetic Acid], 5 nM.
The result for `COc1ccncc1-c1cc(C)nc(N2CCc3cc(-c4c(C)nc(C)c([C@H](OC(C)(C)C)C(=O)O)c4N4CCC(C)(C)CC4)ccc3C2)n1` [Example 107, (S)-2-(tert-Butoxy)-2-(4-(4,4-dimethylpiperidin-1-yl)-5-(2-(4-(4-methoxypyridin-3-yl)-6-methylpyrimidin-2-yl)-1,2,3,4-tetrahydroisoquinolin-6-yl)-2,6-dimethylpyridin-3-yl)acetic Acid] reads 1 nM; that for `Cc1nc(C)c([C@H](OC(C)(C)C)C(=O)O)c(N2CCC(C)(C)CC2)c1-c1ccc2c(c1)CCN(c1ccnc(N3CCOCC3)n1)C2` [Example 57, (S)-2-(tert-Butoxy)-2-(4-(4,4-dimethylpiperidin-1-yl)-2,6-dimethyl-5-(2-(2-morpholinopyrimidin-4-yl)-1,2,3,4-tetrahydroisoquinolin-6-yl)pyridin-3-yl)acetic Acid], 0.5 nM; that for `CC1(C)CCN(c2c(-c3ccc4c(c3)CCN(c3nccc(N5CCOCC5)n3)C4)c(N)nc(Cl)c2[C@H](OC(C)(C)C)C(=O)O)CC1` [Example 167, (S)-2-(6-Amino-2-chloro-4-(4,4-dimethylpiperidin-1-yl)-5-(2-(4-morpholinopyrimidin-2-yl)-1,2,3,4-tetrahydroisoquinolin-6-yl)pyridin-3-yl)-2-(tert-butoxy)acetic Acid], 4 nM.
Turning to `Cc1nc(C)c([C@H](OC(C)(C)C)C(=O)O)c(N2CCC(C)(C)CC2)c1-c1ccc2c(c1)CCN(c1cc(N3CCC(C)CC3)ncn1)C2` [Example 138, (S)-2-(tert-Butoxy)-2-(4-(4,4-dimethylpiperidin-1-yl)-2,6-dimethyl-5-(2-(6-(4-methylpiperidin-1-yl)pyrimidin-4-yl)-1,2,3,4-tetrahydroisoquinolin-6-yl)pyridin-3-yl)acetic Acid], the EC50 is 2 nM.
The result for `Cc1nc(C)c([C@H](OC(C)(C)C)C(=O)O)c(N2CCC(C)(C)CC2)c1-c1ccc2c(c1)CCN(c1ccnc(N3CCC(O)CC3)n1)C2` [Example 75, (S)-2-(tert-Butoxy)-2-(4-(4,4-dimethylpiperidin-1-yl)-5-(2-(2-(4-hydroxypiperidin-1-yl)pyrimidin-4-yl)-1,2,3,4-tetrahydroisoquinolin-6-yl)-2,6-dimethylpyridin-3-yl)acetic Acid] reads 3 nM; that for `COCCNc1nc(C)c([C@H](OC(C)(C)C)C(=O)O)c(N2CCC(C)(C)CC2)c1-c1ccc2c(c1)CCN(Cc1c(C)cccc1Cl)C2` [Example 2, (S)-2-(tert-Butoxy)-2-(5-(2-(2-chloro-6-methylbenzyl)-1,2,3,4-tetrahydroisoquinolin-6-yl)-4-(4,4-dimethylpiperidin-1-yl)-6-((2-methoxyethyl)amino)-2-methylpyridin-3-yl)acetic Acid], 4 nM; that for `Cc1nc(C)c([C@H](OC(C)(C)C)C(=O)O)c(N2CCC(C)(C)CC2)c1-c1ccc2c(c1)CCN(c1nccc(N3C4COCC3COC4)n1)C2` [Example 33, (2S)-2-(tert-Butoxy)-2-[4-(4,4-dimethylpiperidin-1-yl)-5-[2-(4-{3,7-dioxa-9-azabicyclo[3.3.1]nonan-9-yl}pyrimidin-2-yl)-1,2,3,4-tetrahydroisoquinolin-6-yl]-2,6-dimethylpyridin-3-yl]acetic Acid], 5 nM.
The result for `Cc1nc(C)c([C@H](OC(C)(C)C)C(=O)O)c(N2CCC(C)(C)CC2)c1-c1ccc2c(c1)CCN(c1nccc(N3CCC3)n1)C2` [Example 19, (2S)-2-(5-{2-[4-(Azetidin-1-yl)pyrimidin-2-yl]-1,2,3,4-tetrahydroisoquinolin-6-yl}-4-(4,4-dimethylpiperidin-1-yl)-2,6-dimethylpyridin-3-yl)-2-(tert-butoxy)acetic Acid] reads 1 nM.
To `Cc1nc(C)c([C@H](OC(C)(C)C)C(=O)O)c(N2CCC(C)(C)CC2)c1-c1ccc2c(c1)CCN(c1nccc(O)n1)C2` [Example 80, (S)-2-(tert-Butoxy)-2-(4-(4,4-dimethylpiperidin-1-yl)-5-(2-(4-hydroxypyrimidin-2-yl)-1,2,3,4-tetrahydroisoquinolin-6-yl)-2,6-dimethylpyridin-3-yl)acetic Acid] belongs 380 nM; to `Cc1nc(C)c([C@H](OC(C)(C)C)C(=O)O)c(N2CCC(C)(C)CC2)c1-c1ccc2c(c1)CCN(c1cc(N3CC(C)CC(C)C3)ncn1)C2` (stereo partly drawn) [Example 137, (2S)-2-(tert-Butoxy)-2-(4-(4,4-dimethylpiperidin-1-yl)-5-(2-(6-(3,5-dimethylpiperidin-1-yl)pyrimidin-4-yl)-1,2,3,4-tetrahydroisoquinolin-6-yl)-2,6-dimethylpyridin-3-yl)acetic Acid], 7 nM.
Turning to `Cc1nc(C)c([C@H](OC(C)(C)C)C(=O)O)c(N2CCC(C)(C)CC2)c1-c1ccc2c(c1)CCN(c1ncc(F)cc1F)C2` [Example 72, (S)-2-(tert-Butoxy)-2-(5-(2-(3,5-difluoropyridin-2-yl)-1,2,3,4-tetrahydroisoquinolin-6-yl)-4-(4,4-dimethylpiperidin-1-yl)-2,6-dimethylpyridin-3-yl)acetic Acid], the EC50 is 8 nM.
To `Cc1cccc(N2CCc3cc(-c4c(C)nc(C)c([C@H](OC(C)(C)C)C(=O)O)c4N4CCC(C)(C)CC4)ccc3C2)n1` [Example 89, (S)-2-(tert-Butoxy)-2-(4-(4,4-dimethylpiperidin-1-yl)-2,6-dimethyl-5-(2-(6-methylpyridin-2-yl)-1,2,3,4-tetrahydroisoquinolin-6-yl)pyridin-3-yl)acetic Acid] belongs 3 nM.

The EC50 is the concentration needed to bring the measured effect to its halfway point.

The record behind these values is US20200016136A1 (VIIV HEALTHCARE UK (NO. 5) LIMITED, priority 2017, published 2020).
